The record followed here is patent US20120252689A1, “GENE EXPRESSION SIGNATURE FOR WNT/B-CATENIN SIGNALING PATHWAY AND USE THEREOF” (priority 2011, published 2012).

Test [1] concerns active β-catenin. The test is described as follows: Western blot of active β-catenin after LiCl treatment of 293H and CCD1079SK cells. Type of test: cell-based, human. To be noted: 20 μM LiCl, 24 h in serum-free medium, FIG. 3B. As to the method:
For positive regulation with LiCl treatment, 293H and CCD1079SKcells were plated in 6-well plate in a density of 2×10^5 cells/well/2 ml and cells were switched to serum-free medium 24 hours after plating. After 12 hours incubation in serum-free medium, cells were treated with or without 20 μM LiCl for 24 h in serum-free medium. At the end of treatment, cells were lysed in 200 μl of G6 lysis buffer and RNA was isolated with RT2 qPCR-Grade RNA Isolation Kit from SABiosciences according to manufacturer's protocol described in experimental protocol section. The protein extraction and western blot was carried out according to western blot protocol with mouse anti-active β-catenin antibody (1:1000). […] The RNA was isolated with RT2 qPCR-Grade RNA Isolation Kit from SABiosciences according to manufacturer's protocol described in experimental protocol section.
(§1) At the end of experimental treatment, cells were lysed in Modified RIPA buffer (150 mM NaCl, 50 mM TrisHCl, 1% IGEPAL, 0.5% sodium deoxycholate, 1 mM EDTA, 1% Triton X-100 and 0.1% SDS with protease and phosphatase inhibitor) (all chemicals from Sigma). […] After 15 minutes centrifuge at 15000 rpm at 4 degrees C., supernatant was transferred to a new 1.5 ml tube and protein concentration was measured with BCA protein assay according to manufacturer's standard protocol (Pierce). […]
(In general: Immunoblotting shows a protein as a band on a membrane.)

In test [2] the test system is active β-catenin. The test is described as follows: Western blot of active β-catenin after Wnt3a treatment of 293H cells. The class given is cell-based, human. The conditions noted are these: 400 ng/ml Wnt3a, 12 hour treatment in serum-free medium, compared to untreated samples, FIG. 2A. The method, then:
The protocol that was used to identify the subject gene signature is depicted schematically in FIG. 1. As depicted therein, human embryonic kidney 293H cells were plated in 6-well plate in a density of 10′ cells per well in 2 ml growth medium. Plated cells were incubated in a cell culture incubator at 37 degrees C. with 5% CO2 supplied. Twenty four hours after plating, cells were transfected with siRNA specifically targeting β-catenin or non targeting siRNA as control. For each well, 6 μl of SureFECT transfection reagent (SABiosciences, a QIAGEN company) was diluted into 200 μl of OptiMEM medium (Invitrogen). The diluted transfection reagent was mixed with 20 nM −β catenin targeting siRNA duplex D ([…] (SEQ ID NO: 65)) (SABiosciences, a QIAGEN Company) or non-targeting siRNA ([…] (SEQ ID NO: 66)) (SABiosciences, a QIAGEN owned company) as control. […]
as §1

For test [3], the system named is Wnt/β-catenin target genes such as β-catenin (CTNNB1), MYC, CCND1 and AXIN2. The test is described as follows: Real-time RT-PCR of Wnt/β-catenin target genes after Wnt3a treatment of 293H cells. Type of test: cell-based, human. The conditions noted are these: 400 ng/ml Wnt3a, 12 hours, compared to untreated samples, FIG. 2B. As to the method: The protocol that was used to identify the subject gene signature is depicted schematically in FIG. 1. As depicted therein, human embryonic kidney 293H cells were plated in 6-well plate in a density of 10′ cells per well in 2 ml growth medium. Plated cells were incubated in a cell culture incubator at 37 degrees C. with 5% CO2 supplied. Twenty four hours after plating, cells were transfected with siRNA specifically targeting β-catenin or non targeting siRNA as control. For each well, 6 μl of SureFECT transfection reagent (SABiosciences, a QIAGEN company) was diluted into 200 μl of OptiMEM medium (Invitrogen). The diluted transfection reagent was mixed with 20 nM −β catenin targeting siRNA duplex D ([…] (SEQ ID NO: 65)) (SABiosciences, a QIAGEN Company) or non-targeting siRNA ([…] (SEQ ID NO: 66)) (SABiosciences, a QIAGEN owned company) as control. After incubation at room temperature for 20 min, the transfection mixture was added into 293H cells in 6-well plate with 2 ml growth medium. […]
For RNA extraction, cells were lysed in 200 μl of G6 buffer (SABiosciences, a QIAGEN company) for each well. […] The concentration of RNA was measured with Nanodrop spectrophotometer (Thermo SCIENTIFIC) and the RNA was further processed for real-time RT PCR or microarray gene expression profiling analysis. […]

For test [4], the system named is active β-catenin. The test is described as follows: Western blot of active β-catenin after Wnt3a treatment of ten different cell lines. The class given is cell-based. The conditions noted are these: 400 ng/ml Wnt3a, 12 h in serum-free medium, FIG. 3B. As to the method: To obtain ten positively regulated samples with Wnt3a treatment, ten different cell lines were plated in 6-well plates in a density of 2×10^5 cells/well/2 ml. After 24 h of plating, cells were switched to serum-free medium by removing normal culture medium, washing cells in PBS two times and replacing with 1 ml serum-free medium each well. After 12 hours in serum-free medium, cells were replaced with serum-free medium with or without 400 ng/ml Wnt3a in duplicate wells for an additional incubation of 12 h. At the end of 12 hours incubation, cells were either lysed in 50 μl modified RIPA buffer for protein lysate extraction or in 200 μl G6 lysis buffer for RNA isolation. The protein extraction and western blot was carried out according to western blot protocol with mouse anti-active β-catenin antibody (1:1000). […]
as §1

Take `[Cl-].[Li+]` [LiCl]: the “active β-catenin protein levels” value in test [1] was “increased active β-catenin protein levels”.

As to Wnt3a, the “protein levels of active β-catenin” value in test [2] is listed as “increased protein levels of active β-catenin”. The “mRNA expression of Wnt/β-catenin target genes (CTNNB1, MYC, CCND1, AXIN2)” value in test [3] is recorded as “upregulation of Wnt/β-catenin target genes”. The “active β-catenin protein levels” value in test [4] was “increased active β-catenin protein levels”.
